Structures are written as SMILES.

For one data set, the target named is BCL-2 (Homo sapiens (Human), UniProt P10415). The experiment in a line: BCL-2 TR-FRET Assay (primary PPI inhibition). It is filed as binding. Conditions: 60 min incubation; read-out: BCL2 (IC50 code, BCL-2 TR-FRET). How it is done: BCL-2 TR-FRET Assay (BPS Bioscience, #50222)
The following assay concentrations and times were used: 3 ng BCL-2, 5 μl of 1:100 anti-His Tb-labeled donor, 5 μl of 1:100 Dye-labeled acceptor, 5 μl of 1:40 BCL-2 Peptide Ligand, and 2 ul of test compound, with 60 min incubation time. The results of the assay were read using a Clariostar (BMG Labtech) plate reader with the following parameters: TR FRET, 340ex/620 and 665em; 60 μsec Delay; and 500 μsec integration.
For orientation: Time-resolved FRET reads energy transfer from a long-lived donor to a nearby acceptor.

A further data set addresses BCL-XL (Homo sapiens (Human), UniProt Q07817). The experiment in a line: BCL-XL TR-FRET Assay (primary PPI inhibition). It is filed as binding. Conditions: 60 min incubation; read-out: BCLxL (IC50 code, BCL-XL TR-FRET). How it is done: BCL-XL TR-FRET Assay (BPS Bioscience, #50223)
The following assay concentrations and times were used: 10.5 ng BCL-XL, 5 μl of 1:100 anti-His Tb-labeled donor, 5 μl of 1:100 Dye-labeled acceptor, 5 μl of 1:80 BCL-XL Peptide Ligand, and 2 μl of test compound, with 60 min incubation time. The results of the assay were read using a Clariostar (BMG Labtech) plate reader with the following parameters: TR FRET, 340ex/620 and 665em; 60 μsec Delay; and 500 μsec integration.

In a further data set the test system is RS4-11 cells. The experiment in a line: Cell viability assay (CellTiter-Glo), RS4-11. It is filed as cell-based. Conditions: Homo sapiens, 72 h, 3 days, read-out: RS4-11 (CC50 code). How it is done: (§1) Culture medium for HEK293—DMEM (PanEco, Cat #C420) was used. RPMI-1640 (PanEco, Cat #C363) was used for the rest of the cell lines.
(§2) Compounds were prepared as 200× stocks with serial dilution in 100% DMSO with a final concentration of 1×.
(§3) […] were dispersed in 40 μL aliquots in 384-well plates at a concentration of 2000 cells per well for HEK293 and at a concentration of 4000 cells per well for the rest of the cell lines using a robotic station Biomek (Beckman). Before adding compounds, the cells were incubated at 37° C. (HEK293 were incubated for a day before adding compounds).
(§4) A dilution plate was prepared by pouring 78 μL of the appropriate culture medium using a robotic station Biomek (Beckman). Sequentially, using a robotic station, 2 μL of substances were taken and added to 78 μL of culture medium (dilution of compounds 40×). 10 μL aliquots were taken and added to the plates of the cells (dilution of compounds 5×). The plates were incubated for 3 days at a temperature 37° C. After 3 days, 10 μL of CellTiter-Glo (Promega) was added to the cells and the luminescence was measured.

In the next data set the test system is MOLT-4 cells. The data set can be described thus: Cell viability assay (CellTiter-Glo), MOLT-4. Conditions: Homo sapiens, 72 h, 3 days, read-out: MOLT-4 (CC50 code). Type of data set: cell-based. As to the method:
as §1, §2, §3, §4
For orientation: ATP-based viability assays read luminescence as a measure of living cells.

Data set [1] can be described thus: Cell viability assay (CellTiter-Glo), HEK293. Type of data set: cell-based. Conditions: human, HEK293 cells, read-out: HEK293 (CC50 code). How it is done: as §1, §2, §3, §4
Data set [2] relates to caspase-3 and -7 activities in RS4-11 cells. The experiment in a line: Caspase-3/7 activation (Caspase-Glo 3/7) in RS4-11 cells. It is filed as cell-based. Conditions: Homo sapiens, 3.5 h incubation, read-out: Cas-3/7 (EC50 code). As to the method:
The Caspase-Glo 3/7 Assay is homogeneous, luminescent assay that measures caspase-3 and -7 activities. The assay provides a luminogenic caspase-3/7 substrate, which contains the tetrapeptide sequence DEVD, in a reagent optimized for caspase activity.
Incubate RS4-11 cells with varying concentrations of test compounds for 3.5 h in a humidified incubator at 37° C. and 5% CO2 and 30 min at r.t. Add 15 μl Caspase-Glo reagent to each well and incubate the plate for 30 min at r.t. Read on ClarioStar Plus instrument.
Promega Caspase-Glo (Promega, #8212); Frozen RS4-11 cells; 384-well white plate (Corning, #3570).
ClarioStar Plus; Biomek FX for liquid handling (Beckman Coulter).

Chain of BCL-2 (P10415 whole entry): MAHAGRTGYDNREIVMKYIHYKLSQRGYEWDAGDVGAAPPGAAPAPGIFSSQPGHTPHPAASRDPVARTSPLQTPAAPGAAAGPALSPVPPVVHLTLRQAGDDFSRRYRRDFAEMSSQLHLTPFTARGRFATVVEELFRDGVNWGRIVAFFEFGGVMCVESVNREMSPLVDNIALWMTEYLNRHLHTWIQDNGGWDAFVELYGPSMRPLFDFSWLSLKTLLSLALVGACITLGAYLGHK
Chain of BCL-XL (Q07817 whole entry): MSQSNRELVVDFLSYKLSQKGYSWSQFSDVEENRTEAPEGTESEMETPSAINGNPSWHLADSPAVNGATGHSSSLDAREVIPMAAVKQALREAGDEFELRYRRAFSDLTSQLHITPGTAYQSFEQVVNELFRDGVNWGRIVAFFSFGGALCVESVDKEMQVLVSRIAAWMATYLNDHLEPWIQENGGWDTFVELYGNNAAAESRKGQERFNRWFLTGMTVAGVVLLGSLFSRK

As for `O=C(c1cc(-c2cc3c(cc2C(=O)N2Cc4ccccc4C[C@H]2CN2CCOCC2)OCO3)n2c1CCCC2)N(Cc1c(F)cccc1F)c1ccc(O)cc1` [Compound 19, N-(2,6-difluorobenzyl)-N-(4-hydroxyphenyl)-3-(6-{[(3S)-3-(morpholin-4-ylmethyl)-3,4-dihydroisoquinolin-2(1H)-yl]carbonyl}-1,3-benzodioxol-5-yl)-5,6,7,8-tetrahydroindolizine-1-carboxamide], the IC50 – broadly, the midpoint of a concentration-inhibition curve – was 5 to 10 nM at BCL-2 and greater than 4 µM on BCL-XL. The values for the 50% cytotoxic concentration (CC50) in the data set with RS4-11 cells and in the data set on MOLT-4 cells were greater than 200 nM and 2000 to 10000 nM, respectively. Further, the CC50 (in general, the concentration giving 50% cytotoxicity) at 3 days in data set [1] is greater than 25 µM. Besides, the EC50 in data set [2] is greater than 250 nM.
With `Cc1ccc(CN(C(=O)c2cc(-c3cc4c(cc3C(=O)N3Cc5ccccc5C[C@H]3CN3CCOCC3)OCO4)n3c2CCCC3)c2ccc(O)cc2)cc1` [Compound 20, N-(4-hydroxyphenyl)-N-(4-methylbenzyl)-3-(6-{[(3S)-3-(morpholin-4-ylmethyl)-3,4-dihydroisoquinolin-2(1H)-yl]carbonyl}-1,3-benzodioxol-5-yl)-5,6,7,8-tetrahydroindolizine-1-carboxamide], the IC50 on BCL-2 fell in the range of 5 to 10 nM; at BCL-XL, 2 to 4 µM. The CC50 in the data set with RS4-11 cells was 100 to 200 nM; in the data set on MOLT-4 cells it was 2000 to 10000 nM. In data set [1], the 50% cytotoxic concentration (CC50) at 3 days was no more than 10 µM. In addition, the EC50 in data set [2] was greater than 250 nM.
`O=C(c1cc(-c2cc3c(cc2C(=O)N2Cc4ccccc4C[C@H]2CN2CCOCC2)OCO3)n2c1CCCC2)N(Cc1cccc(F)c1)c1ccc(O)cc1` [Compound 21, N-(3-fluorobenzyl)-N-(4-hydroxyphenyl)-3-(6-{[(3S)-3-(morpholin-4-ylmethyl)-3,4-dihydroisoquinolin-2(1H)-yl]carbonyl}-1,3-benzodioxol-5-yl)-5,6,7,8-tetrahydroindolizine-1-carboxamide]: the results for the IC50 at BCL-2 and on BCL-XL were 10 to 50 nM and 2 to 4 µM, respectively. Moreover, the CC50 is 100 to 200 nM in the data set on RS4-11 cells and greater than 10000 nM in the data set on MOLT-4 cells. Besides, in data set [1], the CC50 at 3 days was greater than 25 µM. Further, the EC50 in data set [2] was greater than 250 nM.
In the case of `COc1c(C)cnc(CN(C(=O)c2cc(-c3cc4c(cc3C(=O)N3Cc5ccccc5C[C@H]3CN3CCOCC3)OCO4)n3c2CCCC3)c2ccc(O)cc2)c1C` [Compound 23, N-(4-hydroxyphenyl)-N-[(4-methoxy-3,5-dimethylpyridin-2-yl)methyl]-3-(6-{[(3S)-3-(morpholin-4-ylmethyl)-3,4-dihydroisoquinolin-2(1H)-yl]carbonyl}-1,3-benzodioxol-5-yl)-5,6,7,8-tetrahydroindolizine-1-carboxamide], the IC50 is 10 to 50 nM on BCL-2 and greater than 4 µM on BCL-XL. Besides, the CC50 is greater than 200 nM with RS4-11 cells and greater than 10000 nM in the data set on MOLT-4 cells. Further, the CC50 at 3 days in data set [1] was 10 to 25 µM. Also, in data set [2], the EC50 was greater than 250 nM.
In the case of `O=C(c1cc(-c2cc3c(cc2C(=O)N2Cc4ccccc4C[C@H]2CN2CCOCC2)OCO3)n2c1CCCC2)N(Cc1ccc(C(F)(F)F)cc1)c1ccc(O)cc1` [Compound 24, N-(4-hydroxyphenyl)-3-(6-{[(3S)-3-(morpholin-4-ylmethyl)-3,4-dihydroisoquinolin-2(1H)-yl]carbonyl}-1,3-benzodioxol-5-yl)-N-[4-(trifluoromethyl)benzyl]-5,6,7,8-tetrahydroindolizine-1-carboxamide], the IC50 on BCL-2 is 10 to 50 nM; on BCL-XL, greater than 4 µM. Besides, the 50% cytotoxic concentration (CC50) in the data set on RS4-11 cells is greater than 200 nM; in the data set on MOLT-4 cells it was 2000 to 10000 nM. In addition, in data set [1], the CC50 at 3 days was no more than 10 µM. Besides, the EC50 in data set [2] was greater than 250 nM.
As to `COc1ccccc1CN(C(=O)c1cc(-c2cc3c(cc2C(=O)N2Cc4ccccc4C[C@H]2CN2CCOCC2)OCO3)n2c1CCCC2)c1ccc(O)cc1` [Compound 31, N-(4-hydroxyphenyl)-N-(2-methoxybenzyl)-3-(6-{[(3S)-3-(morpholin-4-ylmethyl)-3,4-dihydroisoquinolin-2(1H)-yl]carbonyl}-1,3-benzodioxol-5-yl)-5,6,7,8-tetrahydroindolizine-1-carboxamide], the 50% inhibitory concentration (IC50) on BCL-2 is no more than 5 nM; at BCL-XL, no more than 2 µM. The figures for the CC50 in the data set on RS4-11 cells and in the data set with MOLT-4 cells were no more than 100 nM and no more than 2000 nM, respectively. For the same compound, the CC50 at 3 days in data set [1] was greater than 25 µM. In addition, in data set [2], the EC50 is no more than 100 nM.
Turning to `O=C(c1cc(-c2cc3c(cc2C(=O)N2Cc4ccccc4C[C@H]2CN2CCOCC2)OCO3)n2c1CCCC2)N(Cc1ccccc1Cl)c1ccc(O)cc1` [Compound 33, N-(2-chlorobenzyl)-N-(4-hydroxyphenyl)-3-(6-{[(3S)-3-(morpholin-4-ylmethyl)-3,4-dihydroisoquinolin-2(1H)-yl]carbonyl}-1,3-benzodioxol-5-yl)-5,6,7,8-tetrahydroindolizine-1-carboxamide], the results for the IC50 at BCL-2 and at BCL-XL were no more than 5 nM and no more than 2 µM, respectively. Further, the CC50 was no more than 100 nM in the data set on RS4-11 cells and no more than 2000 nM in the data set on MOLT-4 cells. Further, in data set [1], the CC50 at 3 days lay in the range of 10 to 25 µM. Also, the EC50 in data set [2] is no more than 100 nM.
`Cc1cccc(Cl)c1CN(C(=O)c1cc(-c2cc3c(cc2C(=O)N2Cc4ccccc4C[C@H]2CN2CCOCC2)OCO3)n2c1CCCC2)c1ccc(O)cc1` [Compound 34, N-(2-chloro-6-methylbenzyl)-N-(4-hydroxyphenyl)-3-(6-{[(3S)-3-(morpholin-4-ylmethyl)-3,4-dihydroisoquinolin-2(1H)-yl]carbonyl}-1,3-benzodioxol-5-yl)-5,6,7,8-tetrahydroindolizine-1-carboxamide]: the IC50 on BCL-2 is greater than 50 nM; on BCL-XL it was greater than 4 µM. Besides, the CC50 with RS4-11 cells is greater than 200 nM; in the data set on MOLT-4 cells, no more than 2000 nM. Besides, in data set [1], the 50% cytotoxic concentration (CC50) at 3 days was greater than 25 µM. In data set [2], the EC50 is greater than 250 nM.
Consider `O=C(c1cc(-c2cc3c(cc2C(=O)N2Cc4ccccc4C[C@H]2CN2CCOCC2)OCO3)n2c1CCCC2)N(Cc1c(Cl)ccc(F)c1F)c1ccc(O)cc1` [Compound 35, N-(6-chloro-2,3-difluorobenzyl)-N-(4-hydroxyphenyl)-3-(6-{[(3S)-3-(morpholin-4-ylmethyl)-3,4-dihydroisoquinolin-2(1H)-yl]carbonyl}-1,3-benzodioxol-5-yl)-5,6,7,8-tetrahydroindolizine-1-carboxamide], for which the 50% inhibitory concentration (IC50) was 10 to 50 nM at BCL-2 and greater than 4 µM at BCL-XL. The figures for the CC50 in the data set with RS4-11 cells and in the data set with MOLT-4 cells were greater than 200 nM and no more than 2000 nM, respectively. In addition, in data set [1], the CC50 at 3 days is greater than 25 µM. For the same compound, the EC50 in data set [2] was greater than 250 nM.
On to `Cn1cnnc1CN(C(=O)c1cc(-c2cc3c(cc2C(=O)N2Cc4ccccc4C[C@H]2CN2CCOCC2)OCO3)n2c1CCCC2)c1ccc(O)cc1` [Compound 48, N-(4-Hydroxyphenyl)-N-[(4-methyl-1,2,4-triazol-3-yl)methyl]-3-[6-[(3S)-3-(morpholinomethyl)-3,4-dihydro-1H-isoquinoline-2-carbonyl]-1,3-benzodioxol-5-yl]-5,6,7,8-tetrahydroindolizine-1-carboxamide], for which the IC50 was no more than 5 nM at BCL-2 and no more than 2 µM at BCL-XL. Moreover, the 50% cytotoxic concentration (CC50) in the data set with RS4-11 cells was no more than 100 nM; in the data set with MOLT-4 cells, 2000 to 10000 nM. For the same compound, the CC50 at 3 days in data set [1] lay in the range of 10 to 25 µM. In data set [2], the EC50 is no more than 100 nM.
As to `Cc1c(CN(C(=O)c2cc(-c3cc4c(cc3C(=O)N3Cc5ccccc5C[C@H]3CN3CCOCC3)OCO4)n3c2CCCC3)c2ccc(O)cc2)cccc1[N+](=O)[O-]` [Compound 50, N-(4-Hydroxyphenyl)-N-[(2-methyl-3-nitro-phenyl)methyl]-3-[6-[(3S)-3-(morpholinomethyl)-3,4-dihydro-1H-isoquinoline-2-carbonyl]-1,3-benzodioxol-5-yl]-5,6,7,8-tetrahydroindolizine-1-carboxamide], the IC50 is greater than 50 nM on BCL-2 and greater than 4 µM on BCL-XL. Also, the CC50 in the data set with RS4-11 cells was greater than 200 nM; with MOLT-4 cells it was 2000 to 10000 nM. Moreover, the half-maximal cytotoxic concentration (CC50) at 3 days in data set [1] was greater than 25 µM. Further, in data set [2], the EC50 was greater than 250 nM.

(Values after patent publication US11697650B2, “Compounds having tetrahydroindolizine-1-carboxamide as BCL-2 inhibitors” (Eil Therapeutics, Inc., priority 2021, dated 2023).)
